Test results published in PubChem BioAssay (NCI).
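Grown in 96-well plates, cells were treated for 48 hours with each compound at five concentrations. Insufficient inhibition: endpoint recorded as highest concentration tested. At the GI50, growth is halved. TGI: total growth inhibition.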

Columns and labels:
Assay in all cases: NCI tumour cell line growth inhibition, 48 h
[1] = test system: OVCAR-4 ovarian
[2] = test system: UACC-257 melanoma
[3] = test system: SK-OV-3 ovarian
[4] = test system: NCI/ADR-RES ovarian
[5] = test system: HL-60(TB) leukemia
[6] = test system: HT29 colon
[7] = test system: A549 NSCLC
[8] = test system: A498 renal
[9] = test system: OVCAR-5 ovarian
[10] = test system: HCT-116 colon
[11] = test system: NCI-H23 lung
[12] = test system: K-562 leukemia
[13] = test system: UACC-62 melanoma
[14] = test system: SK-MEL-5 melanoma
[15] = test system: CCRF-CEM leukemia
[16] = test system: EKVX NSCLC
[17] = test system: M14 melanoma
[18] = test system: SF-268 CNS
[19] = test system: SNB-75 CNS
[20] = test system: T-47D breast
[21] = test system: TK-10 renal
[22] = test system: MCF7 breast
[23] = test system: MOLT-4 leukemia
[24] = test system: PC-3 prostate
[25] = test system: NCI-H460 lung
[26] = test system: SW-620 colon
[27] = test system: SR leukemia
[28] = test system: SN12C renal
[29] = test system: MDA-MB-231 breast
[30] = test system: NCI-H522 lung
[31] = test system: SF-295 CNS
[32] = test system: MDA-MB-435
[33] = test system: LOX IMVI melanoma
[34] = test system: SK-MEL-28 melanoma
[35] = test system: MALME-3M melanoma
[36] = test system: NCI-H226 lung
[37] = test system: CAKI-1 renal
[38] = test system: COLO 205 colon
[39] = test system: HOP-62 NSCLC
[40] = test system: U251 CNS
[41] = test system: HCT-15 colon
[42] = test system: IGROV1 ovarian
[43] = test system: DU-145 prostate
[44] = test system: 786-0 renal
[45] = test system: HS 578T breast
[46] = test system: BT-549 breast
[47] = test system: OVCAR-3 ovarian
[48] = test system: SF-539 CNS
[49] = test system: ACHN renal
[50] = test system: UO-31 renal
[51] = test system: RXF 393 renal
[52] = test system: SK-MEL-2 melanoma
[53] = test system: OVCAR-8 ovarian
[54] = test system: KM12 colon
[55] = test system: SNB-19 CNS
[56] = test system: HOP-92 NSCLC
[57] = test system: RPMI-8226 leukemia

NCCNC1=CC(=O)c2nc3ccccc3c3ccnc1c23
GI50 [1]: 6.47 µM
TGI [1]: > 47.8 µM
GI50 [2]: 3.34 µM
TGI [2]: > 36.7 µM
GI50 [3]: 3.69 µM
TGI [3]: > 65.2 µM
GI50 [4]: 3.13 µM
TGI [4]: 24.9 µM
GI50 [5]: 3.78 µM
TGI [5]: > 35.4 µM
GI50 [6]: 22.6 µM
TGI [6]: > 73.6 µM
GI50 [7]: 3.26 µM
TGI [7]: > 100 µM
GI50 [8]: 9.55 µM
TGI [8]: > 100 µM
GI50 [9]: 7.23 µM
TGI [9]: 40.3 µM
GI50 [10]: 2.3 µM
TGI [10]: 14.8 µM
GI50 [11]: 1.24 µM
TGI [11]: 3.9 µM
GI50 [12]: 1.4 µM
TGI [12]: > 24.3 µM
GI50 [13]: 1.06 µM
TGI [13]: 3.3 µM
GI50 [14]: 1.59 µM
TGI [14]: 4.19 µM
GI50 [15]: 2.53 µM
TGI [15]: > 50.7 µM
GI50 [16]: 16.7 µM
TGI [16]: 53.5 µM
GI50 [17]: 1.48 µM
TGI [17]: 4.75 µM
GI50 [18]: 3.63 µM
TGI [18]: 42.8 µM
GI50 [19]: 3.98 µM
TGI [19]: > 29 µM
GI50 [20]: 3.75 µM
TGI [20]: 20.3 µM
GI50 [21]: 25.9 µM
TGI [21]: > 100 µM
GI50 [22]: 4.55 µM
TGI [22]: > 50.1 µM
GI50 [23]: 3.39 µM
TGI [23]: > 36.9 µM
GI50 [24]: 4.09 µM
TGI [24]: 53.4 µM
GI50 [25]: 0.732 µM
TGI [25]: 5.56 µM
GI50 [26]: 1.75 µM
TGI [26]: 15.8 µM
GI50 [27]: 0.374 µM
GI50 [28]: 1.97 µM
TGI [28]: 14.4 µM
GI50 [29]: 9.02 µM
TGI [29]: 41.9 µM
GI50 [30]: 1.53 µM
TGI [30]: 4.4 µM
GI50 [31]: 1.73 µM
TGI [31]: 7.31 µM
GI50 [32]: 1.42 µM
TGI [32]: 7.62 µM
GI50 [33]: 3.46 µM
TGI [33]: 37.9 µM
GI50 [34]: 4.27 µM
TGI [34]: > 80.5 µM
GI50 [35]: 2.89 µM
TGI [35]: 13.4 µM
GI50 [36]: 2.08 µM
TGI [36]: 20.1 µM
GI50 [37]: 0.534 µM
TGI [37]: 2.96 µM
GI50 [38]: 8.72 µM
TGI [38]: 29 µM
GI50 [39]: 0.362 µM
TGI [39]: 6.41 µM
GI50 [40]: 2.3 µM
TGI [40]: 22.7 µM
GI50 [41]: 1.4 µM
TGI [41]: > 49.2 µM
GI50 [42]: 1.58 µM
TGI [42]: 10.6 µM
GI50 [43]: 2.11 µM
TGI [43]: 29.5 µM
GI50 [44]: 2.45 µM
TGI [44]: > 29.2 µM
GI50 [45]: 2.12 µM
TGI [45]: > 23.5 µM
GI50 [46]: 4.09 µM
TGI [46]: 20.6 µM
GI50 [47]: 2.63 µM
TGI [47]: 11.8 µM
GI50 [48]: 1.53 µM
TGI [48]: 4.27 µM
GI50 [49]: 1.91 µM
TGI [49]: 19.6 µM
GI50 [50]: 1.51 µM
TGI [50]: > 20.5 µM
GI50 [51]: 3.97 µM
TGI [51]: 55.7 µM
GI50 [52]: 3.05 µM
TGI [52]: 29.6 µM
GI50 [53]: 3.83 µM
TGI [53]: > 100 µM
GI50 [54]: 3.67 µM
TGI [54]: 38.8 µM
GI50 [55]: 1.79 µM
TGI [55]: 8.33 µM
GI50 [56]: 16.4 µM
TGI [56]: > 43.8 µM
GI50 [57]: 2.01 µM
TGI [57]: > 40.7 µM
